Experiment [1] concerns the target T1, NAD-dependent protein deacetylase sirtuin-2 (Homo sapiens, UniProt Q8IXJ6).
T1 sequence (Q8IXJ6 whole entry): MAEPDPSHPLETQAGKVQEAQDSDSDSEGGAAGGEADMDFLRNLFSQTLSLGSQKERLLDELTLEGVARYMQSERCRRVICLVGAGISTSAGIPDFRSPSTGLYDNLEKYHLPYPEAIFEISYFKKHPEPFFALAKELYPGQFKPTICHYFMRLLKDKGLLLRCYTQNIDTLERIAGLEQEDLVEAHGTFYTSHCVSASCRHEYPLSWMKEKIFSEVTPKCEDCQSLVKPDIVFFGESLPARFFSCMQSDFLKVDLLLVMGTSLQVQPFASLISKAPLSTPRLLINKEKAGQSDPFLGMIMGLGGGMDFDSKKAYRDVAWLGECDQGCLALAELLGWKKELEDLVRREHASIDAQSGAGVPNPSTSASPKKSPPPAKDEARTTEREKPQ
Put plainly: Inhibition of recombinant SIRT2 (unknown origin) using FAM-labeled RHKK(Ac) LM peptide as substrate incubated for 60 mins by electrophoretic mobility shift assay.

Experiment [2] relates to MCF7. Kind of experiment: Antiproliferative activity against human MCF7 cells assessed as reduction in cell proliferation measured after 3 days by MTT assay. It is filed as functional, cell-based. Particulars: MCF7, 72 h. Background: Tetrazolium dyes change colour on reduction, which living cells bring about.
Experiment [3] deals with K562. Kind of experiment: Antiproliferative activity against human K562 cells assessed as reduction in cell proliferation measured after 3 days by MTT assay. Particulars: K562, 72 h. The experiment is classed as functional, cell-based.
The subject of experiment [4] is HeLa. Kind of experiment: Antiproliferative activity against human HeLa cells assessed as reduction in cell proliferation measured after 3 days by MTT assay. The note with it: 72 h. It is filed as functional, cell-based.
Experiment [5] has as its system MT2. Kind of experiment: Cytotoxicity against human MT2 cells assessed as reduction in cell proliferation measured after 3 days by MTT assay. The experiment is classed as cell-based. The note with it: MT2, 72 h.
Experiment [6] concerns HL-60. Put plainly: Antiproliferative activity against human HL-60 cells assessed as reduction in cell proliferation measured after 3 days by MTT assay. The note with it: HL-60, 72 h. The experiment is classed as functional, cell-based.

The values that follow come from ChEMBL document CHEMBL4699459, “Structure activity study of S-trityl-cysteamine dimethylaminopyridine derivatives as SIRT2 inhibitors: Improvement of SIRT2 binding and inhibition” (Bioorg Med Chem Lett, 2020).

A value given as a limit tells only on which side of the number the result lay.

One may read the IC50 as the concentration needed to halve the response being measured. Consider `CN(C)c1ccnc(CNCCS)c1`, for which, in experiment [1], the IC50 is > 100 µM.
In the case of `c1ccc(C(SCCNCc2ccccn2)(c2ccccc2)c2ccccc2)cc1`, the IC50 in experiment [2] came out at 7.44 µM; in experiment [1], 39.3 µM; in experiment [3], 3.15 µM; in experiment [4] it was 4.15 µM; in experiment [5] it was 3.56 µM; in experiment [6], 5.76 µM.
`CN(C)c1ccnc(CNCCSC(C)(C)C)c1`: in experiment [1], the half-inhibitory concentration (IC50) was > 100 µM.
Consider `CCN(CC)c1ccnc(CNCCSC(c2ccccc2)(c2ccccc2)c2ccccc2)c1`, for which the 50% inhibitory concentration (IC50) is 4.97 µM in experiment [2]; 7.6 µM in experiment [1]; 1.11 µM in experiment [3]; 1.32 µM in experiment [4]; 2.22 µM in experiment [5]; 2.68 µM in experiment [6].
Turning to `COC(=O)[C@@H](CSC(c1ccccc1)(c1ccccc1)c1ccccc1)NCc1cc(N(C)C)ccn1`, the IC50 in experiment [2] was 3.16 µM; in experiment [1], 10.8 µM; in experiment [3], 2.17 µM; in experiment [4], 1.56 µM; in experiment [5], 3.15 µM; in experiment [6], 0.45 µM.
Regarding `CN(C)c1cccc(CNCCSC(c2ccccc2)(c2ccccc2)c2ccccc2)c1`, the IC50 in experiment [1] was > 100 µM.
Turning to `CN(C)c1ccnc(CNCCSC(c2ccccc2)(c2ccccc2)c2ccccc2)c1`, the IC50 in experiment [2] was determined as 5.1 µM; in experiment [1], 7.5 µM; in experiment [3] it was 2.44 µM; in experiment [4], 2.25 µM; in experiment [5], 3.16 µM; in experiment [6], 1.87 µM.
Turning to `CN(C)c1ccc(CNCCSC(c2ccccc2)(c2ccccc2)c2ccccc2)c(Cl)c1`, the IC50 in experiment [1] was > 100 µM.
Take `NCCSC(c1ccccc1)(c1ccccc1)c1ccccc1`: the IC50 in experiment [1] was > 100 µM.
With `CN(C)c1ccnc(C(=O)NCCSC(c2ccccc2)(c2ccccc2)c2ccccc2)c1`, in experiment [1], the IC50 was > 100 µM.
Same read-out and setting: to `COc1cc(N(C)C)ccc1CNCCSC(c1ccccc1)(c1ccccc1)c1ccccc1` belongs > 100 µM.
